A compilation of properties of binary mixtures (doi:10.1080/00319104.2019.1566461)

Assay: xn = mol fraction of the nth substance listed
Details: 101.3 kPa

CCOS(=O)(=O)[O-].CC[n+]1ccn(C)c1 + CC(C)C(=O)O
x2 = 0
Details	speed of sound [m/s]
293.15 K	1686.8
298.15 K	1671.4
303.15 K	1661.9
308.15 K	1649.6

CCOS(=O)(=O)[O-].CC[n+]1ccn(C)c1 + CCCCC(=O)O
x2 = 0
Details	speed of sound [m/s]
288.15 K	1696.4
293.15 K	1686.8
298.15 K	1671.4
303.15 K	1661.9
308.15 K	1649.6
313.15 K	1637.5

CCCCC(=O)O + CCOS(=O)(=O)[O-].CC[n+]1ccn(C)c1
speed of sound [m/s]
Details	288.15 K	293.15 K	298.15 K	303.15 K	308.15 K	313.15 K
x1 = 0.0974	–	1655.2	1642.4	1629.8	1617.2	1604.9
x1 = 0.1949	1636.9	–	1611	1598.1	1585.4	1572.9
x1 = 0.2975	1598.8	–	1572.4	–	1546.4	–
x1 = 0.3947	–	–	1538.1	1524.8	–	1498.6
x1 = 0.495	1525	1511.5	1497.7	1484.1	1470.7	1457.3
x1 = 0.595	–	–	1455.3	1441.2	–	1413.8
x1 = 0.6941	1435.7	1421.3	1406.7	1392.3	1377.9	1363.7
x1 = 0.7905	1383	1367.9	1352.6	1337.5	1322.4	1307.5
x1 = 0.8965	1315	1298.6	1282	1265.6	1249.4	1233.2
x1 = 0.926	1295.1	1278.3	1261.3	1244.4	1227.7	1211.1
x1 = 0.9529	1277.5	–	1242.8	–	1208.3	1191.3
x1 = 1	1253.7	1235.8	–	1199.5	–	1163.9

CC(C)C(=O)O + CCOS(=O)(=O)[O-].CC[n+]1ccn(C)c1
speed of sound [m/s]
Details	288.15 K	293.15 K	298.15 K	303.15 K	308.15 K	313.15 K
x1 = 0.1122	1665.5	1652.8	1640	1627.4	1614.9	1602.6
x1 = 0.2295	–	–	1606.3	1593.5	1580.8	1568.2
x1 = 0.3297	1592.5	–	1566.2	1553.2	1540.2	1527.4
x1 = 0.4305	1554.5	1541.2	–	1514.4	1501.1	1488.1
x1 = 0.5464	1501.1	1487.4	–	1459.8	1446.2	1432.7
x1 = 0.6412	–	1439.4	1425.1	1411	1396.9	1383.1
x1 = 0.728	1398.5	1383.9	1369.1	1354.4	1339.9	1325.5
x1 = 0.8127	1331.5	–	–	1284.8	1269	1253.8
x1 = 0.9073	1256.7	1240	1222.8	1205.6	1188.9	1172.5
x1 = 0.9336	1233.1	1213.2	–	–	1162.5	–
x1 = 0.9576	1200.2	–	1158.9	1141	1122.2	1100.7
x1 = 1	1159	1140.3	1121.2	–	1083.6	1065.1
